Experimental data from patent US5792767A, “Bicyclic substituted hexahydrobenz [e] isoindole alpha-1 adrenergic antagonists” (priority 1995, dated 1998).
Where a name gives a salt, the structure may show the parent alone.

Columns and labels:
[1] = biological target: T1, α-1A adrenoceptor (rat vas deferens) (Rattus norvegicus, UniProt P43140); experiment: Functional antagonism of phenylephrine-induced contraction of rat vas deferens; format: cell-based; settings: vs phenylephrine-induced contraction, Schild plot; for Kb: read-out: pA2 Rat Vas Deferens [α-1A] (converted)
T1 construct: PE-induced contraction of rat vas deferens; from tissue; host or cells: isolated rat vas deferens
T1 sequence (P43140 1-466): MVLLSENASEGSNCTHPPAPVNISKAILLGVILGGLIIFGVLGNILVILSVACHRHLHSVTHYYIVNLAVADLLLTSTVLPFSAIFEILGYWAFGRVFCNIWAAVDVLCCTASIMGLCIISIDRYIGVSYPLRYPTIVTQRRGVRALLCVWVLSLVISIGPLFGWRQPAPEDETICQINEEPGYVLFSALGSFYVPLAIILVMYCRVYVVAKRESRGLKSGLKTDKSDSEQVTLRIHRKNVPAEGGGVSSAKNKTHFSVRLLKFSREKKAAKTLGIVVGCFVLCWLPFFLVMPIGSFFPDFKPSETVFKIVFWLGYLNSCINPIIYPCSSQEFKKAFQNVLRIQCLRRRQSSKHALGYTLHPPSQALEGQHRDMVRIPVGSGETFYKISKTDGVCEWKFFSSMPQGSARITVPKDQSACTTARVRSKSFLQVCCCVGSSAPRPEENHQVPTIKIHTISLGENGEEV
Description: (§1) Functional assays indicative of pharmacologically defined α-1 adrenoceptors were used to further characterize compounds. Inhibition of phenylephrine (PE)-induced contraction of canine prostate smooth muscle can be correlated with α-1A adrenoceptor activation. […] For each of these models, agonist dose response curves were repeated against increasing concentrations of test agent to derive a Schild plot [log ([…]) against log (molarity of test agent)] to determine the pA2.

[2] = biological target: T2, α-1A adrenoceptor (dog prostate) (Homo sapiens, UniProt P35348); experiment: Functional antagonism of phenylephrine-induced contraction of canine prostate strips; format: cell-based, dog (canine); settings: vs phenylephrine-induced contraction, Schild plot
T2 construct: from tissue; host or cells: canine prostate strips
T2 sequence (P35348 1-466): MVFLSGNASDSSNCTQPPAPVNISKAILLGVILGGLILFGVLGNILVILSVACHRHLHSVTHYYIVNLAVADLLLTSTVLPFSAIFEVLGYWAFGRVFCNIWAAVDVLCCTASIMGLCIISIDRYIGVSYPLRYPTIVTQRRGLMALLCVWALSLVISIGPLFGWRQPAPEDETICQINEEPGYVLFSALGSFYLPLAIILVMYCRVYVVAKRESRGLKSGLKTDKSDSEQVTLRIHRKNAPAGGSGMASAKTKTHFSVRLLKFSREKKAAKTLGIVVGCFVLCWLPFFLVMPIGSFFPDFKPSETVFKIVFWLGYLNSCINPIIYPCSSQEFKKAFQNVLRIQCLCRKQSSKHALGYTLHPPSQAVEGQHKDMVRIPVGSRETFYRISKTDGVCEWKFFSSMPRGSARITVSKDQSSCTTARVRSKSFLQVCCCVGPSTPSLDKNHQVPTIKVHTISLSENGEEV
Description: (§2) Canine prostate strips were used in vitro as previously described (Hieble, J. P., Boyce, A. J. and Caine, M., Fed. Proc., 45: 2609-2614 (1986)), to determine antagonist potencies against phenylephrine-induced contractions.
as §1

[3] = biological target: T3, α-1B adrenoceptor (rat spleen) (Rattus norvegicus, UniProt P15823); experiment: Functional antagonism of phenylephrine-induced contraction of rat spleen; format: cell-based; settings: vs phenylephrine-induced contraction, Schild plot; for Kb: read-out: pA2 Rat Spleen [α-1B] (converted)
T3 construct: PE-induced contraction of rat spleen; from tissue; host or cells: isolated rat spleen
T3 sequence (P15823 1-515): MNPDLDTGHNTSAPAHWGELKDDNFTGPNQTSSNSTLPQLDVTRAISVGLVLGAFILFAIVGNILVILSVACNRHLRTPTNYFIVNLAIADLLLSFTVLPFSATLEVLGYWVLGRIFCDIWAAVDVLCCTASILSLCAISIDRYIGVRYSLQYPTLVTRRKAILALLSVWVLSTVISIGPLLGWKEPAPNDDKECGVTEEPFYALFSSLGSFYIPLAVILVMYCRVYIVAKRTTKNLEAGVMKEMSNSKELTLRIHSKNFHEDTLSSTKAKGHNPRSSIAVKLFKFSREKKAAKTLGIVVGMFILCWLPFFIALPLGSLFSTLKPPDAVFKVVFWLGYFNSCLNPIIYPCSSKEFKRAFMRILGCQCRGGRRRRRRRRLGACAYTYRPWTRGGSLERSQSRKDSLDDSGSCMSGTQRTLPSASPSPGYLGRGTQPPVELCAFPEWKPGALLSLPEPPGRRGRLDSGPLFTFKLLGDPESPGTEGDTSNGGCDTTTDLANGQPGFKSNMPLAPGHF
Description: as §1

[4] = biological target: T4, α-1A adrenoceptor (dog prostate); experiment: Functional antagonism of phenylephrine-induced contraction of canine prostate strips; format: cell-based, dog (canine); settings: vs phenylephrine-induced contraction, Schild plot; read-out: pA2 Dog Prostate [α-1A] (converted)
T4 construct: from tissue; host or cells: canine prostate strips
Description: as §2, §1

BPH patients = settings: cited from earlier work; for improvement in urinary flow rates and subjective symptom scores: longer term studies

COc1cccc2c1CC[C@@H]1CN(CCn3c(=O)[nH]c4ccccc4c3=O)C[C@H]21 (relative stereo) [Example 1, 3-[2-(cis-9-Methoxy-2,3,3a,4,5,9b-hexahydro-[1H]-benz[e]isoindol-1-yl)ethyl]-[1H,3H]-quinazoline-2,4(1H,3H)-dione hydrochloride]
pA2 Rat Vas Deferens [α-1A] [1]: 8.49
pA2 Dog Prostate [α-1A] [2]: 9.29
pA2 Rat Spleen [α-1B] [3]: 8

COc1cccc2c1CC[C@H]1CN(CCn3c(=O)[nH]c4c(-c5ccccc5)csc4c3=O)C[C@@H]21 (relative stereo) [Example 31, 3-[2-(cis-6-Methoxy-2,3,3a,4,5,9b-hexahydro-[1H]-benz[e]isoindol-1-yl)ethyl]-7-phenylthieno[3.2-d]pyrimidine-2,4(1H,3H)-dione methanesulfonate]
pA2 Dog Prostate [α-1A] [2]: 8.63

COc1cccc2c1CC[C@H]1CN(CCn3c(=O)[nH]c4cc(C)c(C)cc4c3=O)C[C@@H]21 [Example 68, hydrochloride]
pA2 Dog Prostate [α-1A] [2]: 8.28

CCCOC(=O)c1ccc2c(=O)n(CCN3C[C@@H]4CCc5c(OC)cccc5[C@@H]4C3)c(=O)[nH]c2c1 [Example 72, hydrochloride]
pA2 Dog Prostate [α-1A] [2]: 8.57

CCOc1ccc2c(=O)n(CCN3C[C@@H]4CCc5c(OC)cccc5[C@@H]4C3)c(=O)[nH]c2c1C [Example 78, 3-[2-((3aR,9bR)cis-6-Methoxy-2,3,3a,4,5,9b-hexahydro-[1H]-benz[e]isoindol-1I-yl)ethyl]-7-ethox-8-methyl-quinazoline-2,4(1H,3H|-dione hydrochloride]
pA2 Dog Prostate [α-1A] [2]: 8.03

COc1cccc2c1CC[C@H]1CN(CCn3c(=O)[nH]c4c(C)c(C)ccc4c3=O)C[C@@H]21 [Example 80, 3-[2-((3aR.9bR)cis-6-Methoxy-2,3,3a,4,5,9b-hexahydro-[1H-benz[e]isoindol-1-yl)ethyl]-7.8-dimethylquinazoline-2,4(1H,3H)-dione hydrochloride]
Kb [1]: 0.891 nM
Kb [4]: 0.631 nM
Kb [3]: 11.7 nM

COc1cccc2c1CC[C@H]1CN(CCn3c(=O)[nH]c4c(OC)c(OC)ccc4c3=O)C[C@@H]21 [Example 81, hydrochloride]
pA2 Rat Vas Deferens [α-1A] [1]: 8.9
pA2 Dog Prostate [α-1A] [2]: 9.45
pA2 Rat Spleen [α-1B] [3]: 8.15

CCc1cccc2c1CC[C@H]1CN(CCn3c(=O)[nH]c4cc(OC)c(OC)cc4c3=O)C[C@@H]21 [Example 83, hydrochloride]
Kb [1]: 8.51 nM
Kb [4]: 11.2 nM
Kb [3]: 120 nM

COc1cc2nc(N3CCN(C(=O)C4COc5ccccc5O4)CC3)nc(N)c2cc1OC (stereo not shown) [doxazosin]
improvement in urinary flow rates and subjective symptom scores (BPH patients): significant improvements in urinary flow rates and subjective symptom scores

O=C(NC1CCN(CCc2c[nH]c3ccccc23)CC1)c1ccccc1 [indoramin]
improvement in urinary flow rates and subjective symptom scores (BPH patients): significant improvements in urinary flow rates and subjective symptom scores

COc1cc2nc(N3CCN(C(=O)c4ccco4)CC3)nc(N)c2cc1OC [prazosin]
improvement in urinary flow rates and subjective symptom scores (BPH patients): significant improvements in urinary flow rates and subjective symptom scores

COc1cc2nc(N3CCN(C(=O)C4CCCO4)CC3)nc(N)c2cc1OC (stereo not shown) [terazosin]
pA2 Rat Spleen [α-1B] [3]: 8.6
improvement in urinary flow rates and subjective symptom scores (BPH patients): significant improvements in urinary flow rates and subjective symptom scores
clinical efficacy in BPH (BPH patients; non-selective α-1 blockers): Clinical efficacy of α-1 antagonists in BPH has been demonstrated
